Results on seven compounds are retold here after PubChem BioAssay (NCI).

Common to all, as to assay: NCI tumour cell line growth inhibition, 48 h
For test [1], the system named is SF-268 CNS.
Test [2] relates to UACC-62 melanoma.
In test [3] the test system is CAKI-1 renal.
In test [4] the test system is TK-10 renal.
Test [5] concerns CCRF-CEM leukemia.
The subject of test [6] is UO-31 renal.
For test [7], the system named is SNB-19 CNS.
Test [8] concerns MDA-MB-231 breast.
The test system of test [9] is NCI-H23 lung.
For test [10], the system named is U251 CNS.

Molecules are shown by their SMILES.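 Cultured in 96-well plates, cells were exposed to test compound for 48 hours across five concentrations. GI50 is the concentration that inhibits growth by half. TGI: concentration producing complete growth inhibition.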

Turning to `O=C1/C(=C/c2ccc(Cl)cc2)CN(C(=O)CCN2CCC(=NO)CC2)C/C1=C\c1ccc(Cl)cc1`, the GI50 in test [1] was 942 nM; in test [2], 0.585 µM; in test [3], 0.649 µM; in test [4], 1460 nM; in test [5], 317 nM; in test [6], 1010 nM. Further, the GI50 in test [7] was 0.817 µM; in test [8], 637 nM; in test [9] it was 1.13 µM; in test [10], 530 nM. Further, the TGI in test [1] is 2.98 µM; in test [2], 1.72 µM; in [3], 1.85 µM; in test [4], 2.93 µM; in test [5], above 22.3 µM; in test [6], 2.3 µM. The TGI worked out at 2.17 µM in [7], 1.89 µM in [8], 2.63 µM in test [9] and 1.28 µM in test [10].
As for `Cc1ccc(-c2cc(-c3ccc(C)cc3)nc(N3CCN(CCNc4ccnc5cc(Cl)ccc45)CC3)n2)cc1`, the GI50 is 4880 nM in test [1]; 5.54 µM in [2]; 7.56 µM in test [3]; 2290 nM in test [4]; 1770 nM in test [5]; 1160 nM in test [6]. Further, the GI50 in test [7] was 6.51 µM; in test [8], 2520 nM; in test [9], 3.63 µM; in [10], 1430 nM. The TGI in test [1] was 21.9 µM; in test [2], 12.6 µM; in test [3], 16.4 µM; in [4], 8.12 µM; in test [5], above 50 µM; in test [6], 5.53 µM. Further, the TGI in test [7] worked out at 15 µM; in [8], 9.19 µM; in [9], 17.5 µM; in [10] it was 5.39 µM.
Consider `O=C(c1ccco1)c1nc2cc(C(F)(F)F)ccc2[n+]([O-])c1C(F)(F)F`, for which the GI50 in test [1] is 52400 nM; in test [2] it was 45.9 µM; in test [3], above 100 µM; in test [4] it was 50800 nM; in test [5], 60200 nM; in [6], 58800 nM. In addition, the GI50 was 48.3 µM in test [7], 68800 nM in [8], 35.6 µM in [9] and 37000 nM in [10]. Further, the TGI in test [1], in test [2], in test [3], in test [4], in test [5] and in test [6] was above 100 µM each time. Moreover, the TGI in [7], in test [8], in [9] and in test [10] was above 100 µM throughout.
Consider `CCCCCCCCCCC[C@@H](C[C@H]1OC(=O)[C@H]1CCCCCC)OC(=O)[C@@H](CC(C)C)NC=O`, for which the GI50 in test [1] was 2310 nM; in test [2], 4.95 µM; in [3], 5.5 µM; in [4], 32800 nM; in test [5], 1310 nM; in [6], 2520 nM. For the same compound, the GI50 was 5.02 µM in test [7], 1530 nM in test [8], 7.19 µM in test [9] and 2830 nM in test [10]. The TGI is 21.9 µM in [1]; 25.2 µM in [2]; above 100 µM in [3]; above 100 µM in test [4]; 76.4 µM in test [5]; 59.6 µM in [6]. Further, the TGI in test [7] was 25.4 µM; in [8], 5.45 µM; in [9], 67.4 µM; in test [10], 17.2 µM.
Regarding `COc1ccc2c(c1)[nH]c(=O)c1c3cc(OC)c(OC)cc3cn21`, the GI50 in [1] is below 10 nM; in test [2] it was below 0.01 µM; in test [3] it was below 0.01 µM; in test [4], 386 nM; in test [5], below 11.4 nM; in test [6] it was below 10 nM. Moreover, the GI50 is 0.016 µM in [7], 21.9 nM in [8], below 0.0173 µM in test [9] and below 10 nM in [10]. The TGI in [1] was 1.45 µM; in test [2], 21 µM; in test [3], below 0.01 µM; in test [4] it was 17.3 µM; in test [5], 1.12 µM; in test [6], 17.4 µM. The TGI in test [7] was 22.3 µM; in test [8], 1.06 µM; in test [9], 16.4 µM; in [10], 1.35 µM.
For `CC(=O)Nc1ccc(-c2csc(Nc3cccc(-c4csc(-c5ccccc5)n4)c3)n2)cc1`, the GI50 was 20000 nM in test [1]; 4.7 µM in test [2]; 17.5 µM in test [3]; 19700 nM in [4]; above 50000 nM in [5]; 16700 nM in test [6]. Further, the GI50 is 49.7 µM in test [7], 13500 nM in test [8], 16.5 µM in test [9] and 10400 nM in [10]. The TGI is above 50 µM in test [1]; 14.9 µM in test [2]; above 50 µM in [3]; above 50 µM in test [4]; above 50 µM in test [5]; above 50 µM in [6]. In addition, the TGI in test [7] was above 50 µM; in [8], 37.9 µM; in [9], above 50 µM; in [10] it was above 50 µM.
As for `Cc1ccc2nc3c(n2c1)C(=O)C(=O)c1ccccc1-3`, the GI50 in test [1] was 400 nM; in [2] it was 0.152 µM; in test [3], 1.28 µM; in test [4] it was 1280 nM; in test [5], 429 nM; in test [6], 194 nM. In addition, the GI50 in test [7] is 0.565 µM; in test [8], 505 nM; in [9], 0.217 µM; in test [10], 176 nM. In addition, the TGI in [1] was 4.01 µM; in test [2] it was 0.324 µM; in [3] it was 2.71 µM; in test [4], 2.9 µM; in [5], 3.37 µM; in test [6] it was 1 µM. In addition, the TGI in [7] was determined as 1.58 µM; in test [8] it was 3.07 µM; in test [9], 0.576 µM; in test [10] it was 0.419 µM.
